Measured values: PMC3495162 (Journal of medicinal chemistry, 2012)
“Also recorded” adds a separate entry of the source. Where two headings read alike, the source gives them in different places. Values belong to the molecule of their own block, whether it stands above or below them.

How the values were obtained:
[1] = test system: multiple xenograft tumor models; details: cited from earlier work
[2] = test system: H146 cell line; experiment: Cell death assay; format: cell-based; details: for Concentration with a similar effect (>50% of H146 cells undergoing cell death): 24 hr treatment, trypan blue; for Potency in induction of cell death relative to 1 and 2: H146, 24 hr
[3] = test system: H146 cancer cells; experiment: Western blot of PARP and caspase-3 cleavage in cells; format: cell-based; details: 24 hr
[4] = test system: small cell lung cancer; details: Phase I/II clinical trials; cited from earlier work
[5] = test system: chronic lymphocytic leukemia; details: Phase I/II clinical trials; cited from earlier work
[6] = biological target: T1, Bcl-xL (Homo sapiens, UniProt Q07817); details: read-out: Bcl-xL Ki; cited from earlier work
T1 sequence (Q07817 whole entry): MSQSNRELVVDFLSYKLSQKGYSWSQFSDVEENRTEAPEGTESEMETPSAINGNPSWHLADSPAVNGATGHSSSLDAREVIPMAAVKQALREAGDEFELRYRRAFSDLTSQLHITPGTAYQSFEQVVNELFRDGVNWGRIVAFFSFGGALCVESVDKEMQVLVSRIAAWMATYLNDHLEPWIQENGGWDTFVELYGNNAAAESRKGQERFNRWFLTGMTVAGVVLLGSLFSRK

[7] = biological target: T2, Bcl-2 (Homo sapiens, UniProt P10415); details: read-out: Bcl-2 Ki; cited from earlier work
T2 sequence (P10415 whole entry): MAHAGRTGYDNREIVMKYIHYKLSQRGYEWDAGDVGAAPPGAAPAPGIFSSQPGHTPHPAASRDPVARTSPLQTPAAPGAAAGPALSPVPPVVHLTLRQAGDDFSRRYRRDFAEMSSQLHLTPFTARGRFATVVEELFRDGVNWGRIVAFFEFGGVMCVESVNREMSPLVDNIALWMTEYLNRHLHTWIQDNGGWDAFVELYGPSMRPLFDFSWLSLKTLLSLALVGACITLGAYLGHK

[8] = test system: H146 xenograft tumor model; details: well-tolerated dose-schedule, mice; cited from earlier work
[9] = biological target: Mcl-1 (Homo sapiens, UniProt Q07820); experiment: Fluorescence polarization competitive binding assay, Mcl-1; details: at concentrations as high as 5 μM
Sequence of Mcl-1 (Q07820 whole entry): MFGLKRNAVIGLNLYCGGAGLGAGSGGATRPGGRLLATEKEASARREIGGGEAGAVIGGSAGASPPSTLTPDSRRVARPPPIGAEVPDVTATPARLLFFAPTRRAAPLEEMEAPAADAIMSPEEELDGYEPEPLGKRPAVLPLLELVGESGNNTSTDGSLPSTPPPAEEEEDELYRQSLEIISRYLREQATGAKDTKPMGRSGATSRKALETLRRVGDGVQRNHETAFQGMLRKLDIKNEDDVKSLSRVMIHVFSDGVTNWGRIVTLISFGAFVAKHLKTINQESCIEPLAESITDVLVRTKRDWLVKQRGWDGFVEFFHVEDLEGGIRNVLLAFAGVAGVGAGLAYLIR

[10] = biological target: T1, Bcl-xL; experiment: Fluorescence polarization competitive binding assay, Bcl-xL; details: for Times less potent than 5 in binding affinity to Bcl-xL: relative to compound 5
[11] = test system: H1417 small-cell lung cancer cell line; experiment: Cell growth inhibition assay, H1417; format: cell-based; details: for Times less potent than 30 and 31 in inhibition of cell growth, H1417: relative to compounds 30 and 31
[12] = test system: H146 small-cell lung cancer cell line; experiment: Cell growth inhibition assay, H146; format: cell-based; details: for Times less potent than 30 and 31 in inhibition of cell growth, H146: relative to compounds 30 and 31
[13] = test system: H146 xenograft tumors; experiment: Pharmacodynamics: PARP and caspase-3 cleavage in xenograft tumor tissue; format: in vivo, SCID mice; details: single i.v. dose, 28 at 50 mg/kg or 30 at 25 mg/kg; 3- and 6-h time-points
[14] = Maximum tolerated dose determination; details: 75 mg/kg for 28, 50 mg/kg for 30, 25 mg/kg for 31
[15] = test system: H146 xenograft tumor model; experiment: Antitumor efficacy in H146 xenograft tumor model; format: in vivo, SCID mice; details: for Antitumor activity in H146 xenograft tumor model / Weight loss in tumor-bearing animals compared to the vehicle control: 28 at 50 mg/kg, 30 at 25 mg/kg, i.v., daily, 5 days a week for two weeks
[16] = biological target: T2, Bcl-2; experiment: Fluorescence polarization competitive binding assay, Bcl-2

Compound: CN(C)CC[C@H](CSc1ccccc1)Nc1ccc(S(=O)(=O)NC(=O)c2ccc(N3CCN(Cc4ccccc4-c4ccc(Cl)cc4)CC3)cc2)cc1[N+](=O)[O-] [Compound 1, reference compound]
Antitumor activity in xenograft tumor models [1]: efficiently induce tumor regression
Concentration with a similar effect (>50% of H146 cells undergoing cell death) [2]: 30 to 100 nM

Compound: CC1(C)CCC(c2ccc(Cl)cc2)=C(CN2CCN(c3ccc(C(=O)NS(=O)(=O)c4ccc(N[C@H](CCN5CCOCC5)CSc5ccccc5)c(S(=O)(=O)C(F)(F)F)c4)cc3)CC2)C1 [Compound 2]
Antitumor activity in xenograft tumor models [1]: efficiently induce tumor regression
Concentration inducing clear cleavage of PARP and activation of caspase-3 [3]: 30 nM
Single-agent activity in patients with small cell lung cancer [4]: very limited single-agent activity
Antitumor activity in patients in chronic lymphocytic leukemia [5]: evidence of promising antitumor activity
Concentration with a similar effect (>50% of H146 cells undergoing cell death) [2]: 30 to 100 nM

Compound: CCn1c(C)c(C(=O)O)c(-c2cccc(N3CCN(c4ccc(NS(=O)(=O)c5ccc(N[C@H](CCN(C)C)CSc6ccccc6)c([N+](=O)[O-])c5)cc4)CC3)c2)c1-c1ccc(Cl)cc1 [Compound 3]
Ki [6]: < 1 nM
Ki [7]: < 1 nM
Antitumor activity in H146 xenograft model [8]: fails to achieve durable tumor regression
Binding to Mcl-1 [9]: no appreciable binding

Compound: Cc1c(C(=O)O)c(-c2cccc(N3CCN(c4ccc(NS(=O)(=O)c5ccc(N[C@H](CCN6CCOCC6)CSc6ccccc6)c(S(=O)(=O)C(F)(F)F)c5)cc4)CC3)c2)c(-c2ccc(Cl)cc2)n1C [Compound 23, (R)-5-(4-Chlorophenyl)-1,2-dimethyl-4-(3-(4-(4-(4-(4-morpholino-1-(phenylthio)butan-2-ylamino)-3-(trifluoromethylsulfonyl)phenylsulfonamido)phenyl)piperazin-1-yl)phenyl)-1H-pyrrole-3-carboxylic Acid]
Times less potent than 22 in inhibition of cell growth, H1417 ([11]; relative to compound 22): 3–5 times
Times less potent than 22 in inhibition of cell growth, H146 ([12]; relative to compound 22): 3–5 times

Compound: Cc1c(C(=O)O)c(-c2cccc(N3CCN(c4ccc(NS(=O)(=O)c5ccc(N[C@H](CCN6CCC(O)CC6)CSc6ccccc6)c(S(=O)(=O)C(F)(F)F)c5)cc4)CC3)c2)c(-c2ccc(Cl)cc2)n1C [Compound 28, (R)-5-(4-Chlorophenyl)-4-(3-(4-(4-(4-(4-(4-hydroxypiperidin-1-yl)-1-(phenylthio)butan-2-ylamino)-3-(trifluoromethylsulfonyl)phenylsulfonamido)phenyl)piperazin-1-yl)phenyl)-1,2-dimethyl-1H-pyrrole-3-carboxylic Acid]
Cleavage of PARP and caspase-3 in H146 tumor tissues [13]: robust cleavage of PARP and caspase-3
Concentration inducing clear cleavage of PARP and activation of caspase-3 [3]: 100 nM
Ki [10]: < 1 nM
Weight loss at higher doses [14]: more than 10%
Antitumor activity in H146 xenograft tumor model [15]: effective in inhibition of tumor growth; also recorded: effectively inhibits tumor growth, it fails to induce tumor regression
Weight loss in tumor-bearing animals compared to the vehicle control [15]: less than 10%
Potency in induction of cell death relative to 1 and 2 [2]: somewhat less potent than 1 and 2

Compound: CCn1c(C)c(C(=O)O)c(-c2cccc(N3CCN(c4ccc(NS(=O)(=O)c5ccc(N[C@H](CCN6CCC(O)CC6)CSc6ccccc6)c(S(=O)(=O)C(F)(F)F)c5)cc4)CC3)c2)c1-c1ccc(Cl)cc1 [Compound 30, (R)-5-(4-Chlorophenyl)-1-ethyl-4-(3-(4-(4-(4-(4-(4-hydroxypiperidin-1-yl)-1-(phenylthio)butan-2-ylamino)-3-(trifluoromethylsulfonyl)phenylsulfonamido)phenyl)piperazin-1-yl)phenyl)-2-methyl-1H-pyrrole-3-carboxylic Acid]
Cleavage of PARP and caspase-3 in H146 tumor tissues [13]: robust cleavage of PARP and caspase-3
Concentration inducing clear cleavage of PARP and activation of caspase-3 [3]: 10 nM
Ki [10]: < 1 nM
Weight loss at higher doses [14]: more than 10%
Antitumor activity in H146 xenograft tumor model [15]: rapid, complete and durable tumor regression
Weight loss in tumor-bearing animals compared to the vehicle control [15]: less than 10%
Tumor-free mice at day 47 (15 days post-treatment) ([15]; 30 at 25 mg/kg i.v., 7 mice treated): all mice were tumor-free
Ki [16]: < 1 nM
Potency in induction of cell death relative to 1 and 2 [2]: several times more potent than 1 and 2

Compound: Cc1c(C(=O)O)c(-c2cccc(N3CCN(c4ccc(NS(=O)(=O)c5ccc(N[C@H](CCN6CCC(O)CC6)CSc6ccccc6)c(S(=O)(=O)C(F)(F)F)c5)cc4)CC3)c2)c(-c2ccc(Cl)cc2)n1C(C)C [Compound 31, (R)-5-(4-Chlorophenyl)-4-(3-(4-(4-(4-(4-(4-hydroxypiperidin-1-yl)-1-(phenylthio)butan-2-ylamino)-3-(trifluoromethylsulfonyl)phenylsulfonamido)phenyl)piperazin-1-yl)phenyl)-1-isopropyl-2-methyl-1H-pyrrole-3-carboxylic Acid]
Ki [10]: < 1 nM
Weight loss at higher doses [14]: more than 10%
Potency in induction of cell death relative to 1 and 2 [2]: several times more potent than 1 and 2

Compound: CCCn1c(C)c(C(=O)O)c(-c2cccc(N3CCN(c4ccc(NS(=O)(=O)c5ccc(N[C@H](CCN6CCC(O)CC6)CSc6ccccc6)c(S(=O)(=O)C(F)(F)F)c5)cc4)CC3)c2)c1-c1ccc(Cl)cc1 [Compound 32, (R)-5-(4-Chlorophenyl)-4-(3-(4-(4-(4-(4-(4-hydroxypiperidin-1-yl)-1-(phenylthio)butan-2-ylamino)-3-(trifluoromethylsulfonyl)phenylsulfonamido)phenyl)piperazin-1-yl)phenyl)-2-methyl-1-propyl-1H-pyrrole-3-carboxylic Acid]
Times less potent than 30 and 31 in inhibition of cell growth, H1417 [11]: > 10 times
Ki [10]: < 1 nM
Times less potent than 30 and 31 in inhibition of cell growth, H146 [12]: > 10 times

Compound: CCCCn1c(C)c(C(=O)O)c(-c2cccc(N3CCN(c4ccc(NS(=O)(=O)c5ccc(N[C@H](CCN6CCC(O)CC6)CSc6ccccc6)c(S(=O)(=O)C(F)(F)F)c5)cc4)CC3)c2)c1-c1ccc(Cl)cc1 [Compound 33, (R)-1-Butyl-5-(4-chlorophenyl)-4-(3-(4-(4-(4-(4-(4-hydroxypiperidin-1-yl)-1-(phenylthio)butan-2-ylamino)-3-(trifluoromethylsulfonyl)phenylsulfonamido)phenyl)piperazin-1-yl)phenyl)-2-methyl-1H-pyrrole-3-carboxylic acid]
Times less potent than 30 and 31 in inhibition of cell growth, H1417 [11]: > 10 times
Ki [10]: < 1 nM
Times less potent than 30 and 31 in inhibition of cell growth, H146 [12]: > 10 times

Now from value to molecule:

Ki [10]: < 1 nM
Binding to Mcl-1 [9]: no appreciable binding
Compound: Cc1c(C(=O)O)c(-c2cccc(N3CCN(c4ccc(NS(=O)(=O)c5ccc(N[C@H](CCN(C)C)CSc6ccccc6)c([N+](=O)[O-])c5)cc4)CC3)c2)c(-c2ccc(Cl)cc2)n1C [Compound 4]

Times less potent than 5 in binding affinity to Bcl-xL [10]: 30 times
Compound: Cc1c(C(=O)NCCCN2CCN(C)CC2)c(-c2cccc(N3CCN(c4ccc(NS(=O)(=O)c5ccccc5)cc4)CC3)c2)c(-c2ccc(Cl)cc2)n1C [Compound 6, 5-(4-Chlorophenyl)-1,2-dimethyl-N-(3-(4-methylpiperazin-1-yl)propyl)-4-(3-(4-(4-(phenylsulfonamido)phenyl)piperazin-1-yl)phenyl)-1H-pyrrole-3-carboxamide]

Times less potent than 5 in binding affinity to Bcl-xL [10]: slightly less potent than 5
Compound: Cc1c(C(=O)NCCCN2CCN(C)CC2)c(-c2cccc(N3CCN(c4ccc(NS(=O)(=O)c5cccc(Br)c5)cc4)CC3)c2)c(-c2ccc(Cl)cc2)n1C [Compound 9, 5-(4-Chlorophenyl)-4-(3-(4-(4-(3-bromophenylsulfonamido)phenyl)piperazin-1-yl)phenyl) -1,2-dimethyl-N-(3-(4-methylpiperazin-1-yl)propyl)-1H-pyrrole-3-carboxamide]

Times less potent than 5 in binding affinity to Bcl-xL [10]: as potent as 5
Compound: Cc1c(C(=O)NCCCN2CCN(C)CC2)c(-c2cccc(N3CCN(c4ccc(NS(=O)(=O)c5cccc(S(=O)(=O)C(F)(F)F)c5)cc4)CC3)c2)c(-c2ccc(Cl)cc2)n1C [Compound 18, 5-(4-Chlorophenyl)-1,2-dimethyl-N-(3-(4-methylpiperazin-1-yl)propyl)-4-(3-(4-(4-(3-(trifluoromethylsulfonyl)phenylsulfonamido)phenyl)piperazin-1-yl)phenyl)-1H-pyrrole-3-carboxamide]

Ki [10]: < 1 nM
Binding to Mcl-1 [9]: no appreciable binding
Compound: Cc1c(C(=O)O)c(-c2cccc(N3CCN(c4ccc(NS(=O)(=O)c5ccc(N[C@H](CCN(C)C)CSc6ccccc6)c(S(=O)(=O)C(F)(F)F)c5)cc4)CC3)c2)c(-c2ccc(Cl)cc2)n1C [Compound 22, (R)-5-(4-Chlorophenyl)-4-(3-(4-(4-(4-(4-(dimethylamino)-1-(phenylthio)butan-2-ylamino)-3-(trifluoromethylsulfonyl)phenylsulfonamido)phenyl)piperazin-1-yl)phenyl)-1,2-dimethyl-1H-pyrrole-3-carboxylic Acid]
